US20230372346A1, “TREATMENT REGIMENS FOR EXON-20 INSERTION MUTANT EGFR CANCERS” (CULLINAN PEARL CORP., priority 2020, published 2023)
“Also recorded” adds a separate entry of the source. Like-named read-outs stand apart in the source and are kept apart here.

Columns and labels:
[1] = Phase 1/2a study, pharmacokinetics; format: in vivo, human
Method: This is a Phase 1/2a, open-label, multicenter, first-in-human trial to evaluate the safety and tolerability, PK, PD, and preliminary efficacy of CLN-081 in patients with non-small cell lung cancer (NSCLC) harboring epidermal growth factor receptor (EGFR) exon 20 insertion mutations.
PK analysis has been performed with CLN-081 plasma concentrations determined at pre-dose, 0.5, 1, 2, 3, 4, 6, 8 and 24 hour % post initial dose on Cycle (C) I Day (D) I and C1D15. […] CLN-081 has typically been rapidly absorbed with tmax values ranging from 0.5 to 2 hours and a mean average terminal phase elimination half-life (t1/2) of approximately 4 hours.

[2] = test system: NSCLC cell lines harboring mutant EGFR; conditions: LXF 2478 and NCI-H1975 EGFR D770_N771insSVD cells; with inhibition of EGFR phosphorylation and induction of caspase 3/7; cited from earlier work
[3] = test system: subcutaneously-implanted tumors expressing EGFR with exon 20 insertions; conditions: cited from earlier work
[4] = test system: mutant EGFRs that possess mutations in exon 18 or exon 21; conditions: cited from earlier work
[5] = test system: Ba/F3 cell lines harboring EGFR with mutations in exon 18 or exon 21; conditions: cited from earlier work
[6] = test system: subcutaneously-implanted tumors expressing EGFR with G719A+T790M mutations; conditions: cited from earlier work
[7] = unbound, 100 mg BID, patient 0102-001
[8] = unbound, 100 mg BID, patient 0104-005
[9] = unbound, 100 mg BID, patient 0701-001
[10] = G719A, G719S, G719C, E709K, E709A, L861Q

## C=CC(=O)N[C@H]1C=C(C)c2c(-c3cnc4ccccc4c3)c3c(N)ncnc3n2C1 [Compound 1, (S)—N-(4-amino-6-methyl-5-(quinolin-3-yl)-8,9-dihydropyrimido[5,4-b]indolizin-8-yl)acrylamide]
[1]; C1D1 to C1D15, listed as CLN-081
  change in systemic exposure levels / drug accumulation: Minimal to no increase; also recorded: no evidence of meaningful drug accumulation
[1]; across the dose range tested
  dose proportionality of Cmax and AUC: dose proportional increase
[1]; human, plasma, oral, 100 mg, 100 mg BID, patient 0102-001, read-out: T1/2 (converted)
  half-life: 3.6 h
[1]; human, plasma, oral, 100 mg, 100 mg BID, patient 0104-005, read-out: T1/2 (converted)
  half-life: 6.1 h
[1]; human, plasma, oral, 100 mg, 100 mg BID, patient 0701-001, read-out: T1/2 (converted)
  half-life: 3.6 h
[1]; human, plasma, po, oral BID, read-out: mean average terminal phase elimination half-life (t1/2) (converted)
  half-life: ~4 h
[1]; human, plasma, oral, 30-100 mg BID
  Tmax: 0.5 to 2 h
[1]; [7]
  uAUC*: 957 ng·h/mL
  uCmax: 260 ng/mL
[1]; [8]
  uAUC*: 1213 ng·h/mL
  uCmax: 274 ng/mL
[1]; [9]
  uAUC*: 1353 ng·h/mL
  uCmax: 418 ng/mL
[1]; unbound, 30 to 100 mg BID
  AUC0-8hr versus dose: generally increase with increasing dose
  Cmax versus dose: generally increase with increasing dose
[2]
  growth of NSCLC cells with EGFR exon 20 insertions: suppressed the growth
[3]; V769_D770insASV, D770_N771insSVD, H773_V774insNPH, dose-dependent
  antitumor efficacy: striking tumor growth inhibition and tumor regression effects
[3]; nude mice transplanted with NCI-H1975 EGFR D770_N771insSVD
  antitumor efficacy of twice-daily versus once-daily administration: not inferior
[4]; G719A+T790M, L861Q+T790M
  inhibition against EGFRs harboring T790M and either exon 18 or exon 21 mutations: intensive inhibition
[4]; [10]
  activity compared with erlotinib and osimertinib: higher
  potency in inhibiting the phosphorylation of mutant EGFRs: intensive cellular potency
[5]; T790M in addition to either G719A or L861Q
  selectivity index compared to osimertinib: higher
[5]
  selectivity index (ratio between IC50 for WT EGFR and mutant EGFR cell lines) compared to erlotinib and afatinib: much higher
[6]; dose-dependent
  tumor growth inhibition: significant tumor growth inhibition effects
[6]; mouse, in vivo
  body weight loss, fecal abnormalities, or skin abnormalities: not effected at a cost of body weight loss, fecal abnormalities, or skin abnormalities
